Source: ChEMBL document CHEMBL3758169, “4-Aminoindazolyl-dihydrofuro[3,4-d]pyrimidines as non-covalent inhibitors of mutant epidermal growth factor receptor tyrosine kinase” (Bioorg Med Chem Lett, 2016)

What was measured:
[1] = target: Mitogen-activated protein kinase kinase kinase 14 (Homo sapiens) (UniProt Q99558); assay: Inhibition of NIK (unknown origin) at 100 nM
[2] = target: Serine/threonine-protein kinase PAK 4 (Homo sapiens) (UniProt O96013); assay: Inhibition of PAK4 (unknown origin) at 100 nM
[3] = target: Platelet-derived growth factor receptor beta (Homo sapiens) (UniProt P09619); assay: Inhibition of PDGFRbeta (unknown origin) at 100 nM
[4] = target: Serine/threonine-protein kinase D1 (Homo sapiens) (UniProt Q15139); assay: Inhibition of PKD1 (unknown origin) at 100 nM
[5] = target: 5'-AMP-activated protein kinase catalytic subunit alpha-1 (Homo sapiens) (UniProt Q13131); assay: Inhibition of PRKAA1 (unknown origin) at 100 nM
[6] = target: Ribosomal protein S6 kinase alpha-1 (Homo sapiens) (UniProt Q15418); assay: Inhibition of RSK1 (unknown origin) at 100 nM
[7] = target: Proto-oncogene tyrosine-protein kinase Src (Homo sapiens) (UniProt P12931); assay: Inhibition of SRC (unknown origin) at 100 nM
[8] = target: Tyrosine-protein kinase SYK (Homo sapiens) (UniProt P43405); assay: Inhibition of SYK (unknown origin) at 100 nM
[9] = target: Serine/threonine-protein kinase TBK1 (Homo sapiens) (UniProt Q9UHD2); assay: Inhibition of TBK1 (unknown origin) at 100 nM
[10] = target: Non-receptor tyrosine-protein kinase TYK2 (Homo sapiens) (UniProt P29597); assay: Inhibition of TYK2 (unknown origin) at 100 nM
[11] = target: Tyrosine-protein kinase Yes (Homo sapiens) (UniProt P07947); assay: Inhibition of YES (unknown origin) at 100 nM
[12] = target: Tyrosine-protein kinase ZAP-70 (Homo sapiens) (UniProt P43403); assay: Inhibition of ZAP70 (unknown origin) at 100 nM
[13] = target: Serine/threonine-protein kinase mTOR (Homo sapiens) (UniProt P42345); assay: Inhibition of mTOR (unknown origin) at 100 nM
[14] = target: Ribosomal protein S6 kinase beta-1 (Homo sapiens) (UniProt P23443); assay: Inhibition of p70S6K(unknown origin) at 100 nM
[15] = Plasma clearance in iv dosed rat; assay type: ADME, organism-based
[16] = Efflux ratio of permeability from basolateral to apical side over apical to basolateral side in MDCK cells; assay type: ADME, cell-based, Canis lupus familiaris; conditions: dog
[17] = target: Epidermal growth factor receptor (Homo sapiens, UniProt P00533, L858R/T790M); assay: Inhibition of EGFR T790M/L858R mutant (unknown origin); assay type: protein assay
[18] = target: T1, Epidermal growth factor receptor (Homo sapiens, UniProt P00533); assay: Inhibition of wild type EGFR (unknown origin)
Target sequence in this assay (P00533 whole entry): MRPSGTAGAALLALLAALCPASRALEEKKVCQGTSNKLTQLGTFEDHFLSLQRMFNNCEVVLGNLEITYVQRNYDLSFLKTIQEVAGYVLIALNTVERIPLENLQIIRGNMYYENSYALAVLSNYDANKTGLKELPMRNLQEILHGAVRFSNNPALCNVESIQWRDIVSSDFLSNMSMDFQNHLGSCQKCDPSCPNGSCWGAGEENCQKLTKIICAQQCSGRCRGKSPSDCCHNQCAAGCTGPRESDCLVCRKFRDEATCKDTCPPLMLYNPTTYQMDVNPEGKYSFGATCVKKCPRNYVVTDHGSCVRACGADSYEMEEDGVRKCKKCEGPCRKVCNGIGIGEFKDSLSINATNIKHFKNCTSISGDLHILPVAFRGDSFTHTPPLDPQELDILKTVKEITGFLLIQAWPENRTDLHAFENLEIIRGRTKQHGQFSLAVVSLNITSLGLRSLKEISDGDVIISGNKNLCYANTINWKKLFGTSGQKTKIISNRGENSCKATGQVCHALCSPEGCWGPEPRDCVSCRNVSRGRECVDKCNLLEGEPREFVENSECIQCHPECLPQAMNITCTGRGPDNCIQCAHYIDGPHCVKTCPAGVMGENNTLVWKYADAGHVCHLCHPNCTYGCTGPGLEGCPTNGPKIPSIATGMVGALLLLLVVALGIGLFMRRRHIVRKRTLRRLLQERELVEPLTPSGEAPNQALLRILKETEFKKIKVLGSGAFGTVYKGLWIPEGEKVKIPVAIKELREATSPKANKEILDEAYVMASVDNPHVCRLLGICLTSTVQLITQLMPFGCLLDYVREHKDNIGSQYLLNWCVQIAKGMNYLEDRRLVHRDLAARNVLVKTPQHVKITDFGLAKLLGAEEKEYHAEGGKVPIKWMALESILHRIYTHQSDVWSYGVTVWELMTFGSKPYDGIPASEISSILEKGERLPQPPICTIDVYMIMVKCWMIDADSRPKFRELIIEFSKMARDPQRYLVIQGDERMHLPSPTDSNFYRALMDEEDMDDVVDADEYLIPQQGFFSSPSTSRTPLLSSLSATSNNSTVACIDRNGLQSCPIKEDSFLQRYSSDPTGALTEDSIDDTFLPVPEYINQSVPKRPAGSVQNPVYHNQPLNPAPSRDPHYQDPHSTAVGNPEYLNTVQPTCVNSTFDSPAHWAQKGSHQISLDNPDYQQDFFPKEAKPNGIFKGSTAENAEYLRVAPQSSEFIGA

[19] = target: Epidermal growth factor receptor (Homo sapiens, UniProt P00533, L858R); assay: Inhibition of EGFR L858R mutant (unknown origin); assay type: protein assay
[20] = target: T1, Epidermal growth factor receptor; assay: Inhibition of EGFR deletion (746 to 750 residues) mutant (unknown origin); assay type: protein assay
Target sequence in this assay (P00533 25-1210 limits assumed, stated change not applied): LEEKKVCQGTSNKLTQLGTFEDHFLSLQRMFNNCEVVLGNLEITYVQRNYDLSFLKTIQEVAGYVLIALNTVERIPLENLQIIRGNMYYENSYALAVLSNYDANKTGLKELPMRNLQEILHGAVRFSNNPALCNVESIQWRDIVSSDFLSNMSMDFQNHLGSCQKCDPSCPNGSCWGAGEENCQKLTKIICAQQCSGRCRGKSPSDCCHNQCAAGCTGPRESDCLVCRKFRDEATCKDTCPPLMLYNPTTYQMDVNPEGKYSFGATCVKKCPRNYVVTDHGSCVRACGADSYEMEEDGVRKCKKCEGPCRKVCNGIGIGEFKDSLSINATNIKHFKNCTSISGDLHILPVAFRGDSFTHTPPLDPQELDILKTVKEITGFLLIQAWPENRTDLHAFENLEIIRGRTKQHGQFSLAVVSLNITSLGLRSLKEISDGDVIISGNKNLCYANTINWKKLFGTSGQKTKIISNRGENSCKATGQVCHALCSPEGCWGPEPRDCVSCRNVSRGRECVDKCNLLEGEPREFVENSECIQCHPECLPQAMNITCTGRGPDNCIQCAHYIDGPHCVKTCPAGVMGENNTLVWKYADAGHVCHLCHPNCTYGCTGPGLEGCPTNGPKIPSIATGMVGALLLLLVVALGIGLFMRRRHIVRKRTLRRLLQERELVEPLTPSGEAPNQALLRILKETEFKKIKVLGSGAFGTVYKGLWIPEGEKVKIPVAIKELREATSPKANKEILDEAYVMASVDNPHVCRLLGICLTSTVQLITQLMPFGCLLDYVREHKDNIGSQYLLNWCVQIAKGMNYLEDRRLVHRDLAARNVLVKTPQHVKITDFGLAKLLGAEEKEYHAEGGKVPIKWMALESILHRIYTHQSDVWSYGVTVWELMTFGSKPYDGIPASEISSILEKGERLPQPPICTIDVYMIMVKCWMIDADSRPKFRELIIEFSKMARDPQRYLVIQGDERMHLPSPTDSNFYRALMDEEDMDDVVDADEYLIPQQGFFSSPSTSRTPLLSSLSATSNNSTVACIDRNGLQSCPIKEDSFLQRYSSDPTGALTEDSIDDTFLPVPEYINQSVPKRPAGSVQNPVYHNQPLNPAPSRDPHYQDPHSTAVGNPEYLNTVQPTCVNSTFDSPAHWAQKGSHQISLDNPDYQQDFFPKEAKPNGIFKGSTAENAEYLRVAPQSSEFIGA

[21] = target: T1, Epidermal growth factor receptor; assay: Inhibition of EGFR T790M/deletion (746 to 750 residues) mutant (unknown origin); assay type: protein assay
Target sequence in this assay (P00533 25-1210 limits assumed, stated change not applied): as above

[22] = target: Tyrosine-protein kinase ABL1 (Homo sapiens) (UniProt P00519); assay: Inhibition of ABL (unknown origin) at 100 nM
[23] = target: Aurora kinase B (Homo sapiens) (UniProt Q96GD4); assay: Inhibition of Aurora B (unknown origin) at 100 nM
[24] = target: CDK2/Cyclin A2 (Homo sapiens) (UniProt P24941+P20248); assay: Inhibition of CDK2/cyclinA (unknown origin) at 100 nM; assay type: protein-complex assay
[25] = target: Casein kinase I isoform alpha (Homo sapiens) (UniProt P48729); assay: Inhibition of CK1alpha1 (unknown origin) at 100 nM
[26] = target: Macrophage colony-stimulating factor 1 receptor (Homo sapiens) (UniProt P07333); assay: Inhibition of CSF1R (unknown origin) at 100 nM
[27] = target: Mitogen-activated protein kinase kinase kinase 8 (Homo sapiens) (UniProt P41279); assay: Inhibition of COT (unknown origin) at 100 nM
[28] = target: T1, Epidermal growth factor receptor; assay: Inhibition of EGFR (unknown origin) at 100 nM
Target sequence in this assay (P00533 whole entry): as the sequence (P00533 whole entry) above

[29] = test system: Epidermal growth factor receptor (Homo sapiens), P00533 [L858R]; assay: Inhibition of EGFR L858R mutant (unknown origin) at 100 nM; assay type: protein assay
[30] = test system: Epidermal growth factor receptor (Homo sapiens), P00533 [L861Q]; assay: Inhibition of EGFR L861Q mutant (unknown origin) at 100 nM; assay type: protein assay
[31] = test system: Epidermal growth factor receptor (Homo sapiens), P00533 [T790M]; assay: Inhibition of EGFR T790M mutant (unknown origin) at 100 nM; assay type: protein assay
[32] = target: Mitogen-activated protein kinase 1 (Homo sapiens) (UniProt P28482); assay: Inhibition of ERK2 (unknown origin) at 100 nM
[33] = target: Ephrin type-A receptor 2 (Homo sapiens) (UniProt P29317); assay: Inhibition of EPHA2 (unknown origin) at 100 nM
[34] = target: Protein-tyrosine kinase 2-beta (Homo sapiens) (UniProt Q14289); assay: Inhibition of FAK2 (unknown origin) at 100 nM
[35] = target: Receptor-type tyrosine-protein kinase FLT3 (Homo sapiens) (UniProt P36888); assay: Inhibition of FLT3 (unknown origin) at 100 nM
[36] = target: Insulin-like growth factor 1 receptor (Homo sapiens) (UniProt P08069); assay: Inhibition of IGF1R (unknown origin) at 100 nM
[37] = target: Inhibitor of nuclear factor kappa-B kinase subunit beta (Homo sapiens) (UniProt O14920); assay: Inhibition of IKKbeta (unknown origin) at 100 nM
[38] = target: Interleukin-1 receptor-associated kinase 4 (Homo sapiens) (UniProt Q9NWZ3); assay: Inhibition of IRAK4 (unknown origin) at 100 nM
[39] = target: Tyrosine-protein kinase JAK1 (Homo sapiens) (UniProt P23458); assay: Inhibition of JAK1 (unknown origin) at 100 nM
[40] = target: Tyrosine-protein kinase JAK2 (Homo sapiens) (UniProt O60674); assay: Inhibition of JAK2 (unknown origin) at 100 nM
[41] = target: Tyrosine-protein kinase JAK2 (Homo sapiens) (UniProt O60674); assay: Inhibition of JAK2 JH1JH2 domain (unknown origin) at 100 nM
[42] = target: Mitogen-activated protein kinase 8 (Homo sapiens) (UniProt P45983); assay: Inhibition of JNK1 alpha1 (unknown origin) at 100 nM
[43] = target: Leucine-rich repeat serine/threonine-protein kinase 2 (Homo sapiens) (UniProt Q5S007); assay: Inhibition of LRRK2 (unknown origin) at 100 nM
[44] = target: Tyrosine-protein kinase Lck (Homo sapiens) (UniProt P06239); assay: Inhibition of LCK (unknown origin) at 100 nM
[45] = target: Serine/threonine-protein kinase Chk1 (Homo sapiens) (UniProt O14757); assay: Inhibition of CHK1 (unknown origin) at 100 nM

Sequence of Tyrosine-protein kinase JAK2 (Homo sapiens) (O60674 whole entry, the tested form may be a part): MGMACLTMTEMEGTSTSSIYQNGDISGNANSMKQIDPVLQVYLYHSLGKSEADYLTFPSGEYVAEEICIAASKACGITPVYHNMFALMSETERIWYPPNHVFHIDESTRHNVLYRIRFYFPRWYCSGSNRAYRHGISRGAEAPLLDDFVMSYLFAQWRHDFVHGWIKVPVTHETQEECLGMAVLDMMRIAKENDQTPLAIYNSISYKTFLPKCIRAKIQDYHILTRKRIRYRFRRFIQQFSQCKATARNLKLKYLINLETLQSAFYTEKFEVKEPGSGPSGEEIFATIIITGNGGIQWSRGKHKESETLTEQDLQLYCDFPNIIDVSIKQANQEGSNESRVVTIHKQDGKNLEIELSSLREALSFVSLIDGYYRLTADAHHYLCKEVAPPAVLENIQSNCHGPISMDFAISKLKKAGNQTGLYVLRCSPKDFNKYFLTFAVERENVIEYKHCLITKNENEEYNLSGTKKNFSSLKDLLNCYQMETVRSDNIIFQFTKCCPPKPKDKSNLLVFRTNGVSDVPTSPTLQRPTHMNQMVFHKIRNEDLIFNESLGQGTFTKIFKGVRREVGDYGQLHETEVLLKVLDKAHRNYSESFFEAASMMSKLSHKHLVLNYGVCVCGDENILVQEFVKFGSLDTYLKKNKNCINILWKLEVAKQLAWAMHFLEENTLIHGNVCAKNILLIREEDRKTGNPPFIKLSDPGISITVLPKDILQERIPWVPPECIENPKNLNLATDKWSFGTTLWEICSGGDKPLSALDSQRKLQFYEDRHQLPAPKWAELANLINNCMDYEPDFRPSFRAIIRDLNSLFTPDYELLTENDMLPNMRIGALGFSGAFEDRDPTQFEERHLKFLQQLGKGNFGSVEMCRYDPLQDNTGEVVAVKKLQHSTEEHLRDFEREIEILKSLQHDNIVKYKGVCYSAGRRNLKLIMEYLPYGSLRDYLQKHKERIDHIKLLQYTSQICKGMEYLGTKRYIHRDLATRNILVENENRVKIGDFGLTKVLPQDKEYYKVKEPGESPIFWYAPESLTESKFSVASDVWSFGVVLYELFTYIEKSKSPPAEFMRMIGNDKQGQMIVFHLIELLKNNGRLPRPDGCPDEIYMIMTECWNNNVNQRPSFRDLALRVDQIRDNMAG
Sequence of Protein-tyrosine kinase 2-beta (Homo sapiens) (Q14289 whole entry, looked up): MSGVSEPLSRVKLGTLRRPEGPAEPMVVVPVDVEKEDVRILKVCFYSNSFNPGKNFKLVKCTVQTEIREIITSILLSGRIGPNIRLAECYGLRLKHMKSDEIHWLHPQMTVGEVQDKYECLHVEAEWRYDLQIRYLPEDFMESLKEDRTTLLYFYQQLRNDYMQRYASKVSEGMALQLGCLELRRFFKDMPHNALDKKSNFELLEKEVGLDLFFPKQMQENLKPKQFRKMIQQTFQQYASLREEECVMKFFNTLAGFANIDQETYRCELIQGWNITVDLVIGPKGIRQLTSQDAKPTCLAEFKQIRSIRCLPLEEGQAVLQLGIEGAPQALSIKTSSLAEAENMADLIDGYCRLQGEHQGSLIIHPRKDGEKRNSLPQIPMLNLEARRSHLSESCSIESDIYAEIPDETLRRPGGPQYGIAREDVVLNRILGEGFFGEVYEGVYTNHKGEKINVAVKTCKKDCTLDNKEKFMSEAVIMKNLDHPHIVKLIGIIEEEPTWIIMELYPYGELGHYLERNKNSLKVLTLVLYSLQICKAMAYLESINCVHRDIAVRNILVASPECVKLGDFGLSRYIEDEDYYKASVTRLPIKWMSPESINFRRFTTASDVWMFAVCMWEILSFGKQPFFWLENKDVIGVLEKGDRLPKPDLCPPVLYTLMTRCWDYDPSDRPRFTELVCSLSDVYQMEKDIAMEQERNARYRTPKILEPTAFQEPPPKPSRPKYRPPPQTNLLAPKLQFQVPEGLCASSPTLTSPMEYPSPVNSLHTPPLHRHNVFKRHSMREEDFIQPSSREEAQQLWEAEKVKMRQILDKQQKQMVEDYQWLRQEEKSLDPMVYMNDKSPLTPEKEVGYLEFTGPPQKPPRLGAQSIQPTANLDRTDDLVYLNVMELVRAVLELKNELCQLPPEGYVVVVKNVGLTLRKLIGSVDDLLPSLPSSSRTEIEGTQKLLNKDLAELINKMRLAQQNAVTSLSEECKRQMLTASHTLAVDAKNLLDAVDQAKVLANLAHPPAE
Sequence of Mitogen-activated protein kinase 1 (Homo sapiens) (P28482 whole entry): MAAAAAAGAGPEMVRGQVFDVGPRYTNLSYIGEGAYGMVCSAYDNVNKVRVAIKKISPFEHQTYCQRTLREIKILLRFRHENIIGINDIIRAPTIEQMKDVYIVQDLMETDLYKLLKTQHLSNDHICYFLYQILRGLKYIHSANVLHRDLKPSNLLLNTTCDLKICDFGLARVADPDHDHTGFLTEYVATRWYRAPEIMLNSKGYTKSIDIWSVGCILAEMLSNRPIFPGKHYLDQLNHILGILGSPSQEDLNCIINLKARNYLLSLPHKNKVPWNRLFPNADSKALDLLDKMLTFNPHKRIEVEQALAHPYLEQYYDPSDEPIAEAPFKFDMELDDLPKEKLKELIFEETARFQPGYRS

CC1(C)OCc2c(Nc3n[nH]c4ccccc34)nc(-c3cn[nH]c3)nc21
inhibition [1]: 18% | inhibition [2]: 0.2% | inhibition [3]: 35.2% | inhibition [4]: 2.1% | inhibition [5]: -3.1% | inhibition [6]: 13.9% | inhibition [7]: 47.3% | inhibition [8]: 0.4% | inhibition [9]: 7.9% | inhibition [10]: 4.9% | inhibition [11]: 88.1% | inhibition [12]: 9.2% | inhibition [13]: -1.6% | inhibition [14]: 4.3% | clearance [15]: 86 mL/min/kg | efflux ratio [16]: 2.4 | Ki [17]: 2 nM | Ki [18]: 0.6 nM | Ki [19]: 0.5 nM | Ki [20]: 0.2 nM | Ki [21]: 1.6 nM | inhibition [22]: 54.1% | inhibition [23]: -2.5% | inhibition [24]: 1.9% | inhibition [25]: 6.9% | inhibition [26]: 17.5% | inhibition [27]: 9.1% | inhibition [28]: 97.4% | inhibition [29]: 97.7% | inhibition [30]: 99.7% | inhibition [31]: 95.2% | inhibition [32]: 1.2% | inhibition [33]: 12.2% | inhibition [34]: 9.7% | inhibition [35]: 16.5% | inhibition [36]: 4.4% | inhibition [37]: 4.8% | inhibition [38]: 4.3% | inhibition [39]: 7.7% | inhibition [40]: 9.8% | inhibition [41]: 1.9% | inhibition [42]: -9.9% | inhibition [43]: 13.2% | inhibition [44]: 50.6% | inhibition [45]: 2.7%

CC1(C)OCc2c(Nc3n[nH]c4c(Cl)cccc34)nc(-c3cn[nH]c3)nc21
inhibition [1]: -0.3% | inhibition [2]: -3.1% | inhibition [3]: 10.8% | inhibition [4]: 8.4% | inhibition [5]: 27.8% | inhibition [6]: 19.5% | inhibition [7]: 66.5% | inhibition [8]: 7% | inhibition [9]: 9.4% | inhibition [10]: 2% | inhibition [11]: 94.6% | inhibition [12]: 3.5% | inhibition [13]: 8.7% | inhibition [14]: 10.4% | clearance [15]: 74 mL/min/kg | efflux ratio [16]: 1.6 | Ki [17]: 2 nM | Ki [18]: 1.5 nM | Ki [19]: 1.3 nM | Ki [20]: 0.4 nM | Ki [21]: 1.3 nM | inhibition [22]: 35.3% | inhibition [23]: 16.4% | inhibition [24]: 5.3% | inhibition [25]: -3.3% | inhibition [26]: 19.1% | inhibition [27]: 7.4% | inhibition [28]: 93.7% | inhibition [29]: 90.5% | inhibition [30]: 95.2% | inhibition [31]: 91.3% | inhibition [32]: -3.5% | inhibition [33]: 11.8% | inhibition [34]: 9.1% | inhibition [35]: 67.3% | inhibition [36]: 13.5% | inhibition [37]: 7% | inhibition [38]: 16.9% | inhibition [39]: 3.5% | inhibition [40]: 8.8% | inhibition [41]: 14% | inhibition [42]: 4.1% | inhibition [43]: 7.5% | inhibition [44]: 86.9% | inhibition [45]: 5.3%
